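Cells were grown in 96-well plates and exposed to each compound for 48 hours at five concentrations; endpoints were interpolated linearly between bracketing concentrations, or set to the highest concentration if not reached. GI50: concentration for 50% inhibition of growth. At the TGI there is no net growth.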
These molecules were tested on SK-MEL-2 melanoma (assay: NCI tumour cell line growth inhibition, 48 h).

SMILES | GI50 | TGI
Nc1nc2c(c3cnccc13)C(c1ccc(Cl)c(Cl)c1)Cc1cnccc1-2 (stereo not drawn) | 0.401 µM | 1.86 µM
CN(C)CCCC1(c2ccc(F)cc2)OCc2cc(-c3cccc4[nH]ccc34)ccc21 (stereo not drawn) | 1.79 µM | 3.59 µM

These molecules were tested on SK-MEL-28 melanoma (assay: NCI tumour cell line growth inhibition, 48 h).

SMILES | GI50 | TGI
Cc1ccc2c(-c3ccnc(Nc4ccc5c(c4)OCCO5)n3)c(-c3ccc(C(F)(F)F)cc3)nn2n1 | > 25 µM | > 25 µM
Nc1nc2c(c3cnccc13)C(c1ccc(Cl)c(Cl)c1)Cc1cnccc1-2 (stereo not drawn) | 2.85 µM | 19 µM
CN(C)CCCC1(c2ccc(F)cc2)OCc2cc(-c3cccc4[nH]ccc34)ccc21 (stereo not drawn) | 1.83 µM | 3.27 µM

The molecules below were run on SK-MEL-5 melanoma (assay: NCI tumour cell line growth inhibition, 48 h).

SMILES | GI50 | TGI
Cc1ccc2c(-c3ccnc(Nc4ccc5c(c4)OCCO5)n3)c(-c3ccc(C(F)(F)F)cc3)nn2n1 | 2.04 µM | 7.42 µM
Nc1nc2c(c3cnccc13)C(c1ccc(Cl)c(Cl)c1)Cc1cnccc1-2 (stereo not drawn) | 0.58 µM | 3.83 µM
CN(C)CCCC1(c2ccc(F)cc2)OCc2cc(-c3cccc4[nH]ccc34)ccc21 (stereo not drawn) | 1.75 µM | 3.17 µM

Each molecule was assayed on SK-OV-3 ovarian (assay: NCI tumour cell line growth inhibition, 48 h).

SMILES | GI50 | TGI
Cc1ccc2c(-c3ccnc(Nc4ccc5c(c4)OCCO5)n3)c(-c3ccc(C(F)(F)F)cc3)nn2n1 | 3.8 µM | > 25 µM
Nc1nc2c(c3cnccc13)C(c1ccc(Cl)c(Cl)c1)Cc1cnccc1-2 (stereo not drawn) | 0.463 µM | 10.8 µM
CN(C)CCCC1(c2ccc(F)cc2)OCc2cc(-c3cccc4[nH]ccc34)ccc21 (stereo not drawn) | 1.75 µM | 3.25 µM

What follows are molecules tested on SN12C renal (assay: NCI tumour cell line growth inhibition, 48 h).

SMILES | GI50 | TGI
Cc1ccc2c(-c3ccnc(Nc4ccc5c(c4)OCCO5)n3)c(-c3ccc(C(F)(F)F)cc3)nn2n1 | 5.26 µM | > 25 µM
Nc1nc2c(c3cnccc13)C(c1ccc(Cl)c(Cl)c1)Cc1cnccc1-2 (stereo not drawn) | 1.18 µM | 6.68 µM
CN(C)CCCC1(c2ccc(F)cc2)OCc2cc(-c3cccc4[nH]ccc34)ccc21 (stereo not drawn) | 1.55 µM | 2.96 µM

These molecules were tested on SNB-19 CNS (assay: NCI tumour cell line growth inhibition, 48 h).

SMILES | GI50 | TGI
Cc1ccc2c(-c3ccnc(Nc4ccc5c(c4)OCCO5)n3)c(-c3ccc(C(F)(F)F)cc3)nn2n1 | > 25 µM | > 25 µM
Nc1nc2c(c3cnccc13)C(c1ccc(Cl)c(Cl)c1)Cc1cnccc1-2 (stereo not drawn) | 0.65 µM | 13.5 µM
CN(C)CCCC1(c2ccc(F)cc2)OCc2cc(-c3cccc4[nH]ccc34)ccc21 (stereo not drawn) | 1.74 µM | 3.26 µM

These molecules were tested on SNB-75 CNS (assay: NCI tumour cell line growth inhibition, 48 h).

SMILES | GI50 | TGI
Cc1ccc2c(-c3ccnc(Nc4ccc5c(c4)OCCO5)n3)c(-c3ccc(C(F)(F)F)cc3)nn2n1 | > 8.65 µM | > 25 µM
Nc1nc2c(c3cnccc13)C(c1ccc(Cl)c(Cl)c1)Cc1cnccc1-2 (stereo not drawn) | 0.368 µM | 12.1 µM
CN(C)CCCC1(c2ccc(F)cc2)OCc2cc(-c3cccc4[nH]ccc34)ccc21 (stereo not drawn) | 1.27 µM | 3.37 µM

These molecules were tested on SR leukemia (assay: NCI tumour cell line growth inhibition, 48 h).

SMILES | GI50 | TGI
Cc1ccc2c(-c3ccnc(Nc4ccc5c(c4)OCCO5)n3)c(-c3ccc(C(F)(F)F)cc3)nn2n1 | 17 µM | > 25 µM
Nc1nc2c(c3cnccc13)C(c1ccc(Cl)c(Cl)c1)Cc1cnccc1-2 (stereo not drawn) | 0.384 µM | > 100 µM
CN(C)CCCC1(c2ccc(F)cc2)OCc2cc(-c3cccc4[nH]ccc34)ccc21 (stereo not drawn) | 0.973 µM | 2.97 µM

What follows are molecules tested on SW-620 colon (assay: NCI tumour cell line growth inhibition, 48 h).

SMILES | GI50 | TGI
Cc1ccc2c(-c3ccnc(Nc4ccc5c(c4)OCCO5)n3)c(-c3ccc(C(F)(F)F)cc3)nn2n1 | > 25 µM | > 25 µM
Nc1nc2c(c3cnccc13)C(c1ccc(Cl)c(Cl)c1)Cc1cnccc1-2 (stereo not drawn) | 0.449 µM | 11.5 µM
CN(C)CCCC1(c2ccc(F)cc2)OCc2cc(-c3cccc4[nH]ccc34)ccc21 (stereo not drawn) | 1.77 µM | 3.54 µM

These molecules were tested on T-47D breast (assay: NCI tumour cell line growth inhibition, 48 h).

SMILES | GI50 | TGI
Cc1ccc2c(-c3ccnc(Nc4ccc5c(c4)OCCO5)n3)c(-c3ccc(C(F)(F)F)cc3)nn2n1 | 1.78 µM | > 25 µM
Nc1nc2c(c3cnccc13)C(c1ccc(Cl)c(Cl)c1)Cc1cnccc1-2 (stereo not drawn) | 0.333 µM | 18.2 µM
CN(C)CCCC1(c2ccc(F)cc2)OCc2cc(-c3cccc4[nH]ccc34)ccc21 (stereo not drawn) | 1.75 µM | 3.78 µM

These molecules were tested on TK-10 renal (assay: NCI tumour cell line growth inhibition, 48 h).

SMILES | GI50 | TGI
Cc1ccc2c(-c3ccnc(Nc4ccc5c(c4)OCCO5)n3)c(-c3ccc(C(F)(F)F)cc3)nn2n1 | 8.11 µM | > 25 µM
Nc1nc2c(c3cnccc13)C(c1ccc(Cl)c(Cl)c1)Cc1cnccc1-2 (stereo not drawn) | 1.18 µM | 9.48 µM
CN(C)CCCC1(c2ccc(F)cc2)OCc2cc(-c3cccc4[nH]ccc34)ccc21 (stereo not drawn) | 1.7 µM | 3.2 µM

These molecules were tested on U251 CNS (assay: NCI tumour cell line growth inhibition, 48 h).

SMILES | GI50 | TGI
Cc1ccc2c(-c3ccnc(Nc4ccc5c(c4)OCCO5)n3)c(-c3ccc(C(F)(F)F)cc3)nn2n1 | 20.8 µM | > 25 µM
Nc1nc2c(c3cnccc13)C(c1ccc(Cl)c(Cl)c1)Cc1cnccc1-2 (stereo not drawn) | 0.375 µM | 2.6 µM
CN(C)CCCC1(c2ccc(F)cc2)OCc2cc(-c3cccc4[nH]ccc34)ccc21 (stereo not drawn) | 1.52 µM | 2.89 µM

These molecules were tested on UACC-257 melanoma (assay: NCI tumour cell line growth inhibition, 48 h).

SMILES | GI50 | TGI
Cc1ccc2c(-c3ccnc(Nc4ccc5c(c4)OCCO5)n3)c(-c3ccc(C(F)(F)F)cc3)nn2n1 | 4.21 µM | 13.2 µM
Nc1nc2c(c3cnccc13)C(c1ccc(Cl)c(Cl)c1)Cc1cnccc1-2 (stereo not drawn) | 14.8 µM | 29.1 µM
CN(C)CCCC1(c2ccc(F)cc2)OCc2cc(-c3cccc4[nH]ccc34)ccc21 (stereo not drawn) | 1.7 µM | 3.18 µM

What follows are molecules tested on UACC-62 melanoma (assay: NCI tumour cell line growth inhibition, 48 h).

SMILES | GI50 | TGI
Cc1ccc2c(-c3ccnc(Nc4ccc5c(c4)OCCO5)n3)c(-c3ccc(C(F)(F)F)cc3)nn2n1 | 5.84 µM | > 25 µM
Nc1nc2c(c3cnccc13)C(c1ccc(Cl)c(Cl)c1)Cc1cnccc1-2 (stereo not drawn) | 0.352 µM | 2.44 µM
CN(C)CCCC1(c2ccc(F)cc2)OCc2cc(-c3cccc4[nH]ccc34)ccc21 (stereo not drawn) | 1.76 µM | 3.23 µM

The molecules below were run on UO-31 renal (assay: NCI tumour cell line growth inhibition, 48 h).

SMILES | GI50 | TGI
Cc1ccc2c(-c3ccnc(Nc4ccc5c(c4)OCCO5)n3)c(-c3ccc(C(F)(F)F)cc3)nn2n1 | 2.41 µM | > 25 µM
Nc1nc2c(c3cnccc13)C(c1ccc(Cl)c(Cl)c1)Cc1cnccc1-2 (stereo not drawn) | 1.54 µM | 6.72 µM
CN(C)CCCC1(c2ccc(F)cc2)OCc2cc(-c3cccc4[nH]ccc34)ccc21 (stereo not drawn) | 1.35 µM | 2.63 µM
